Article PMC8353353, “Assessing reversible and irreversible binding effects of kinase covalent inhibitors through ADP-Glo assays” (STAR Protocols, 2021)

How the values were obtained:
MKK7 [1] = molecular target: T1, MKK7 (Homo sapiens, UniProt O14733, S271D/T275D); experiment: ADP-Glo assay with kinase-inhibitor pre-incubation step (phosphorylation of cov-JNK3 substrate by MKK7); type: biochemical; settings: for luminescence intensity: raw data; for Normalized Intensity (%): normalized to Control DMSO only and Control No kinase
T1 construct: Recombinant MKK7 (full-length, S287D/T291D); made in house
T1 sequence (O14733 1-435 isoform O14733-3 S287D/T291D): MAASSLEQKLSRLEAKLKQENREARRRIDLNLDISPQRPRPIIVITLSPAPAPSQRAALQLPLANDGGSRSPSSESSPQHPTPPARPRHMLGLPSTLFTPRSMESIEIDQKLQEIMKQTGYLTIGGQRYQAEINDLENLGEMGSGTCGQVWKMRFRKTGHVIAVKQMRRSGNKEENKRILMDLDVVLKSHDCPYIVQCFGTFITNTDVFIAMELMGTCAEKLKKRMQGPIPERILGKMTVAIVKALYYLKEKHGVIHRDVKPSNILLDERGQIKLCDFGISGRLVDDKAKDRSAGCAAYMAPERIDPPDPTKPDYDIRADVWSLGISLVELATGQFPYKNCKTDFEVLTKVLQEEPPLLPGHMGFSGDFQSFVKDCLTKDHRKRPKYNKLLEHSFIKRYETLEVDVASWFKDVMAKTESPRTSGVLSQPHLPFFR
Protocol: The protocol described here uses Echo® 550 liquid handler. However, when performing with manual pipetting, adjusting pipetting volume of each component of the kinase reaction is required with an example provided in the above table. We had performed the following protocol using both pipetting methods, and observed similar assay quality with an example shown in Figure 3.
This part of the protocol describes a variation of the ADP-Glo^TM assay that includes a pre-incubation step between the tested inhibitors and MKK7 prior to an addition of ATP (Figure 4). […] Thus, apparent greater inhibitory potencies would be expected. The protocol below describes an experiment testing three inhibitors using fixed concentrations of 25 nM for MKK7 kinase, 30 μM for cov-JNK3 substrate and 100 μM for ATP with the layout of the assay plate shown in Figure 5. • 1. Thaw ADP-Glo^TM assay reagents. Place 10 mM ultra-pure ATP immediately on ice, while the other reagents can be kept at 22°C–25°C. • 2. Quick thaw MKK7 kinase and 10× cov-JNK3 substrate and spin both using benchtop centrifuge at high speed at 4°C for 10 min. Transfer clear supernatant into a new tube and keep on ice. • 3. Prepare 75 μL of 10× MKK7 kinase solution by diluting MKK7 to 250 nM in protein storage buffer. Keep the solution on ice until further use. • 4. Prepare the following mixtures and keep them on ice until further use. • a. Mixture 1: one part of 10× MKK7 kinase solution, one part of 10× cov-JNK3 substrate and eight part of the reaction buffer. For example, 500 μL of Mixture 1 contains 50 μL of 10× MKK7 kinase solution, 50 μL of 10× cov-JNK3 substrate and […] of the reaction buffer. This 500-μL Mixture 1 is adequate for approximately 100 reactions and will be used for the reactions containing inhibitors and the “Control DMSO only” wells (see Figure 5). • b. Mixture 2: one part of protein storage buffer, one part of 10× cov-JNK3 substrate and eight part of the reaction buffer. For example, 50 μL of Mixture 2 is made from 5 μL of protein storage buffer, 5 μL of 10× cov-JNK3 substrate and 45 μL of the reaction buffer. This 50-μL Mixture 2 is adequate for 10 reactions and is for the “Control No kinase” wells (see Figure 5). • c. Mixture 3: one part of 10× MKK7 kinase solution, one part of protein storage buffer and eight part of the reaction buffer. For example, 50 μL of Mixture 3 is made from 5 μL of 10× MKK7 kinase solution, 5 μL of protein storage buffer and 45 μL of reaction buffer. This 50-μL Mixture 3 is adequate for 10 reactions and is for the “Control No substrate” wells (see Figure 5) • 5. Prepare a serial dilution of inhibitors in a 384-well assay plate using the “Dose response” setting in Echo®550 acoustic liquid handler according to the manufacture’s manual. For this experiment, the dilution series of three inhibitors at 11 concentrations is prepared by the following steps (see also Figure 5 and Data S1 for an example input for Echo® dose response pipetting): • a. Prepare 5 mM inhibitor stock solutions in DMSO and transfer 25 μL of each into three different wells of an Echo® source plate. Fill the 4th well with 30 μL DMSO. • b. Use the “Dose response” program in Echo® 550 liquid handler with a DMSO backfill option to aliquot the correct volumes of the inhibitors and DMSO into each reaction wells in the assay plate according to the plate layout in Figure 5. Note that two intermediate compound dilutions will be created by the ECHO® dose response program (see Data S1 for an example input for Echo® dose response pipetting). 50 nL of DMSO should be transferred to each control well to ensure homogeneous assay conditions. The total transfer volume of 50 nL of either inhibitor alone, inhibitor plus DMSO or DMSO alone is fixed to ensure constant 1% final DMSO concentration (see Data S1 for an example input for Echo® dose response pipetting). • 6. […]

MKK7 [2] = molecular target: T1, MKK7; set-up: method as in Schröder et al., 2020; settings: with vs without kinase-inhibitor pre-incubation; Figure 6; ref Schröder et al., 2020; cited from earlier work
[3] = [Inhibitor] 1.49E-05 M (log -4.83)
[4] = [Inhibitor] 1.65E-08 M (log -7.78)
[5] = [Inhibitor] 1.65E-09 M (log -8.78)
[6] = [Inhibitor] 2.43E-10 M (log -9.62)
[7] = [Inhibitor] 2.91E-07 M (log -6.54)
[8] = [Inhibitor] 4.95E-05 M (log -4.31)
[9] = [Inhibitor] 4.95E-06 M (log -5.31)
[10] = [Inhibitor] 4.95E-09 M (log -8.31)
[11] = [Inhibitor] 8.08E-10 M (log -9.09)
[12] = [Inhibitor] 8.08E-11 M (log -10.09)
[13] = [Inhibitor] 9.71E-07 M (log -6.01)
[14] = [Inhibitor] 9.71E-08 M (log -7.01)

Row | Compound | luminescence intensity (MKK7 [1]; [3]) | luminescence intensity (MKK7 [1]; [4]) | luminescence intensity (MKK7 [1]; [5]) | luminescence intensity (MKK7 [1]; [6]) | luminescence intensity (MKK7 [1]; [7]) | luminescence intensity (MKK7 [1]; [8]) | luminescence intensity (MKK7 [1]; [9]) | luminescence intensity (MKK7 [1]; [10]) | luminescence intensity (MKK7 [1]; [11]) | luminescence intensity (MKK7 [1]; [12]) | luminescence intensity (MKK7 [1]; [13]) | luminescence intensity (MKK7 [1]; [14]) | Normalized Intensity (%) (MKK7 [1]; log[Inhibitor] -4.31) | Normalized Intensity (%) (MKK7 [1]; log[Inhibitor] -4.83) | Normalized Intensity (%) (MKK7 [1]; log[Inhibitor] -5.31) | Normalized Intensity (%) (MKK7 [1]; log[Inhibitor] -6.01) | Normalized Intensity (%) (MKK7 [1]; log[Inhibitor] -6.54) | Normalized Intensity (%) (MKK7 [1]; log[Inhibitor] -7.01) | Normalized Intensity (%) (MKK7 [1]; log[Inhibitor] -7.78) | Normalized Intensity (%) (MKK7 [1]; log[Inhibitor] -8.31) | other results
1 | C=CC(=O)N1CCC[C@@H](n2nc(-c3ccc(Oc4ccccc4)cc3)c3c(N)ncnc32)C1 [Ibrutinib] | 18884 | 157972 | 195602 | 176476 | 49318 | 52382 | 64212 | 138435 | 152383 | 159956 | 22472 | 121319 | 17.05% | -1.74% | 23.69% | 0.27% | 15.33% | 55.73% | 76.30% | 65.34% | Normalized Intensity (%) (MKK7 [1]; log[Inhibitor] -8.78): 97.41%; Normalized Intensity (%) (MKK7 [1]; log[Inhibitor] -9.09): 73.16%; Normalized Intensity (%) (MKK7 [1]; log[Inhibitor] -9.62): 86.68%; Normalized Intensity (%) (MKK7 [1]; log[Inhibitor] -10.09): 77.41%
2 | CC(=O)c1cnc2ccc(-c3cc(Cl)c(O)c(Cl)c3)nc2c1N[C@H]1CC[C@H](CN(C)C)CC1 [OTSSP167] | 50306 | 167511 | 188762 | 186492 | 53403 | 62181 | 22921 | 186941 | 193825 | 208349 | 43374 | 94669 | 22.55% | 15.89% | 0.52% | 12.00% | 17.63% | 40.78% | 81.65% | 92.55% | Normalized Intensity (%) (MKK7 [1]; log[Inhibitor] -8.78): 93.57%; Normalized Intensity (%) (MKK7 [1]; log[Inhibitor] -9.09): 96.42%; Normalized Intensity (%) (MKK7 [1]; log[Inhibitor] -9.62): 92.30%; Normalized Intensity (%) (MKK7 [1]; log[Inhibitor] -10.09): 104.56%; shift of inhibitory potencies (IC50) between the two assay variants (MKK7 [2]): less pronounced
